Results from ChEMBL document CHEMBL5321270, “Discovery of Pyrazolone Carbothioamide Derivatives as Inhibitors of the Pdr1-KIX Interaction for Combinational Treatment of Azole-Resistant Candidiasis” (J Med Chem, 2023).
Values after ≈ are worked out from the molar mass of the structure shown. Active and inactive are the calls of the source. No cut-off for these calls is given here.

Experiments:
[1] = Inhibition of fluorescent probe FITC tagged PDR1-KIX domain (unknown origin) protein-protein interaction assessed as inhibition constant incubated for 2 hrs by fluorescence polarization binding assay
Nakaseomyces glabratus [2] = assay: Antifungal activity against FLC-resistant Candida glabrata 0161 infected in cyclophosphamide immunosuppressed ICR mouse model assessed as inhibition of fungal growth in kidney at 40 mg/kg,ip administrated for 5 days; assay type: functional, organism-based; conditions: time 5.0 day
[3] = Binding affinity to Candida glabrata KIX domain assessed as dissociation constant; set-up: species or system Nakaseomyces glabratus
Nakaseomyces glabratus [4] = assay: Antifungal activity against fluconazole-resistant Candida glabrata 0161 assessed as fungal growth inhibition incubated for 48 hrs by microplate reader assay; assay type: functional
Nakaseomyces glabratus [5] = assay: Antifungal activity against fluconazole-resistant Candida glabrata 0161 assessed as fractional inhibitory concentration incubated for 48 hrs in presence of fluconazole by microplate reader assay; assay type: functional
Nakaseomyces glabratus [6] = assay: Antifungal activity against fluconazole-resistant Candida glabrata 0161 assessed as fluconazole fractional inhibitory concentration incubated for 48 hrs in presence of fluconazole by microplate reader assay; assay type: functional
Nakaseomyces glabratus [7] = assay: Synergistic antifungal activity against fluconazole-resistant Candida glabrata 0161 assessed as fractional inhibitory concentration index incubated for 48 hrs in presence of fluconazole by checkerboard microdilution method; assay type: functional
[8] = Aqueous solubility of compound; assay type: physicochemical
Nakaseomyces glabratus [9] = assay: Synergistic antifungal activity against fluconazole-resistant Candida glabrata 0161 assessed as fractional inhibitory concentration index incubated for 48 hrs in presence of A6 compound by checkerboard microdilution method; assay type: functional
Nakaseomyces glabratus [10] = assay: Synergistic antifungal activity against fluconazole-resistant Candida glabrata 0161 assessed as fractional inhibitory concentration index incubated for 48 hrs in presence of A11 compound by checkerboard microdilution method; assay type: functional
Nakaseomyces glabratus [11] = assay: Synergistic antifungal activity against fluconazole-resistant Candida glabrata 0161 assessed as fractional inhibitory concentration index incubated for 48 hrs in presence of A1 compound by checkerboard microdilution method; assay type: functional
Nakaseomyces glabratus [12] = assay: Synergistic antifungal activity against fluconazole-resistant Candida glabrata 0161 assessed as fractional inhibitory concentration index incubated for 48 hrs in presence of A2 compound by checkerboard microdilution method; assay type: functional
Nakaseomyces glabratus [13] = assay: Synergistic antifungal activity against fluconazole-resistant Candida glabrata 0161 assessed as fractional inhibitory concentration index incubated for 48 hrs in presence of A3 compound by checkerboard microdilution method; assay type: functional
Nakaseomyces glabratus [14] = assay: Synergistic antifungal activity against fluconazole-resistant Candida glabrata 0161 assessed as fractional inhibitory concentration index incubated for 48 hrs in presence of A4 compound by checkerboard microdilution method; assay type: functional
Nakaseomyces glabratus [15] = assay: Synergistic antifungal activity against fluconazole-resistant Candida glabrata 0161 assessed as fractional inhibitory concentration index incubated for 48 hrs in presence of A5 compound by checkerboard microdilution method; assay type: functional
Nakaseomyces glabratus [16] = assay: Synergistic antifungal activity against fluconazole-resistant Candida glabrata 0161 assessed as fractional inhibitory concentration index incubated for 48 hrs in presence of A7 compound by checkerboard microdilution method; assay type: functional
Nakaseomyces glabratus [17] = assay: Synergistic antifungal activity against fluconazole-resistant Candida glabrata 0161 assessed as fractional inhibitory concentration index incubated for 48 hrs in presence of A8 compound by checkerboard microdilution method; assay type: functional
Nakaseomyces glabratus [18] = assay: Synergistic antifungal activity against fluconazole-resistant Candida glabrata 0161 assessed as fractional inhibitory concentration index incubated for 48 hrs in presence of A9 compound by checkerboard microdilution method; assay type: functional
Nakaseomyces glabratus [19] = assay: Synergistic antifungal activity against fluconazole-resistant Candida glabrata 0161 assessed as fractional inhibitory concentration index incubated for 48 hrs in presence of A10 compound by checkerboard microdilution method; assay type: functional
Nakaseomyces glabratus [20] = assay: Synergistic antifungal activity against fluconazole-resistant Candida glabrata 0161 assessed as fractional inhibitory concentration index incubated for 48 hrs in presence of A12 compound by checkerboard microdilution method; assay type: functional
Nakaseomyces glabratus [21] = assay: Synergistic antifungal activity against fluconazole-resistant Candida glabrata 0161 assessed as fractional inhibitory concentration index incubated for 48 hrs in presence of A13 compound by checkerboard microdilution method; assay type: functional
Nakaseomyces glabratus [22] = assay: Synergistic antifungal activity against fluconazole-resistant Candida glabrata 0161 assessed as fractional inhibitory concentration index incubated for 48 hrs in presence of A14 compound by checkerboard microdilution method; assay type: functional
Nakaseomyces glabratus [23] = assay: Synergistic antifungal activity against fluconazole-resistant Candida glabrata 0161 assessed as fractional inhibitory concentration index incubated for 48 hrs in presence of B1 compound by checkerboard microdilution method; assay type: functional
Nakaseomyces glabratus [24] = assay: Synergistic antifungal activity against fluconazole-resistant Candida glabrata 0161 assessed as fractional inhibitory concentration index incubated for 48 hrs in presence of B2 compound by checkerboard microdilution method; assay type: functional
Nakaseomyces glabratus [25] = assay: Synergistic antifungal activity against fluconazole-resistant Candida glabrata 0161 assessed as fractional inhibitory concentration index incubated for 48 hrs in presence of B3 compound by checkerboard microdilution method; assay type: functional
Nakaseomyces glabratus [26] = assay: Synergistic antifungal activity against fluconazole-resistant Candida glabrata 0161 assessed as fractional inhibitory concentration index incubated for 48 hrs in presence of B4 compound by checkerboard microdilution method; assay type: functional
Nakaseomyces glabratus [27] = assay: Synergistic antifungal activity against fluconazole-resistant Candida glabrata 0161 assessed as fractional inhibitory concentration index incubated for 48 hrs in presence of B5 compound by checkerboard microdilution method; assay type: functional
Nakaseomyces glabratus [28] = assay: Synergistic antifungal activity against fluconazole-resistant Candida glabrata 0161 assessed as fractional inhibitory concentration index incubated for 48 hrs in presence of B6 compound by checkerboard microdilution method; assay type: functional
Nakaseomyces glabratus [29] = assay: Synergistic antifungal activity against fluconazole-resistant Candida glabrata 0161 assessed as fractional inhibitory concentration index incubated for 48 hrs in presence of B7 compound by checkerboard microdilution method; assay type: functional
Nakaseomyces glabratus [30] = assay: Synergistic antifungal activity against fluconazole-resistant Candida glabrata 0161 assessed as fractional inhibitory concentration index incubated for 48 hrs in presence of B8 compound by checkerboard microdilution method; assay type: functional
Nakaseomyces glabratus [31] = assay: Antifungal activity against fluconazole-resistant Candida glabrata 0161 assessed as fungal growth inhibition at 16 ug/ml incubated for 48 hrs by time-growth curve assay; assay type: functional, organism-based; conditions: dose 16.0 µg/ml
Nakaseomyces glabratus [32] = assay: Antifungal activity against fluconazole-resistant Candida glabrata 0161 assessed as inhibition of fungal biofilm formation at 32 ug/ml incubated for 24 hrs by XXT reduction menadione assay; assay type: functional
Nakaseomyces glabratus [33] = assay: Synergistic antifungal activity against fluconazole-resistant Candida glabrata 0161 assessed as inhibition of fungal biofilm formation at 4 ug/ml incubated for 24 hrs in presence of compound B8 by XXT reduction menadione assay; assay type: functional
Nakaseomyces glabratus [34] = assay: Antifungal activity against fluconazole-resistant Candida glabrata 0161 assessed as inhibition of fungal mature biofilm formation at 0.25 to 64 ug/ml incubated for 24 hrs by XXT reduction menadione assay; assay type: functional, organism-based; conditions: dose 0.25-64 µg/ml
Nakaseomyces glabratus [35] = assay: Antifungal activity against fluconazole-resistant Candida glabrata 0161 assessed as downregulation of PDR1 gene expression at 32 ug/ml by RT-PCR analysis; assay type: functional, organism-based; conditions: dose 32.0 µg/ml
Nakaseomyces glabratus [36] = assay: Antifungal activity against fluconazole-resistant Candida glabrata 0161 assessed as downregulation of CDR1 gene expression at 32 ug/ml by RT-PCR analysis; assay type: functional, organism-based; conditions: dose 32.0 µg/ml
Nakaseomyces glabratus [37] = assay: Antifungal activity against fluconazole-resistant Candida glabrata 0161 assessed as downregulation of CDR2 gene expression at 32 ug/ml by RT-PCR analysis; assay type: functional, organism-based; conditions: dose 32.0 µg/ml
Nakaseomyces glabratus [38] = assay: Antifungal activity against fluconazole-resistant Candida glabrata 0161 assessed as downregulation of ERG11 gene expression at 32 ug/ml by RT-PCR analysis; assay type: functional, organism-based; conditions: dose 32.0 µg/ml
Nakaseomyces glabratus [39] = assay: Antifungal activity against FLC-resistant Candida glabrata 0161 infected in cyclophosphamide immunosuppressed ICR mouse model assessed as inhibition of fungal growth in kidney at 5 mg/kg,ip administrated for 5 days; assay type: functional, organism-based; conditions: time 5.0 day
Nakaseomyces glabratus [40] = assay: Antifungal activity against FLC-resistant Candida glabrata 0161 infected in cyclophosphamide immunosuppressed ICR mouse model assessed as pathological change in kidney at 5 mg/kg,ip administrated for 5 days by Hematoxylin and eosin staining based analysis; assay type: functional, organism-based; conditions: time 5.0 day
Nakaseomyces glabratus [41] = assay: Antifungal activity against fluconazole-resistant Candida glabrata 9256 assessed as fungal growth inhibition incubated for 48 hrs by microplate reader assay; assay type: functional
Nakaseomyces glabratus [42] = assay: Antifungal activity against fluconazole-resistant Candida glabrata 8535 assessed as fungal growth inhibition incubated for 48 hrs by microplate reader assay; assay type: functional
Candida albicans = assay: Antifungal activity against Candida albicans assessed as fungal growth inhibition incubated for 48 hrs by microplate reader assay; assay type: functional
Candida tropicalis = assay: Antifungal activity against Candida tropicalis 10186 assessed as fungal growth inhibition incubated for 48 hrs by microplate reader assay; assay type: functional
Candida parapsilosis = assay: Antifungal activity against Candida parapsilosis 20090 assessed as fungal growth inhibition incubated for 48 hrs by microplate reader assay; assay type: functional; conditions: Lodderomyces parapsilosis
[Candida] auris [43] = Antifungal activity against Candida auris 0030 assessed as fungal growth inhibition incubated for 48 hrs by microplate reader assay; assay type: functional; conditions: Candidozyma auris
[Candida] auris [44] = Antifungal activity against Candida auris 15448 assessed as fungal growth inhibition incubated for 48 hrs by microplate reader assay; assay type: functional; conditions: Candidozyma auris
Aspergillus fumigatus = assay: Antifungal activity against Aspergillus fumigatus 7544 assessed as fungal growth inhibition incubated for 48 hrs by microplate reader assay; assay type: functional
Nannizzia gypsea = assay: Antifungal activity against Microsporum gypseum assessed as fungal growth inhibition incubated for 48 hrs by microplate reader assay; assay type: functional
Trichophyton rubrum = assay: Antifungal activity against Trichophyton rubrum assessed as fungal growth inhibition incubated for 48 hrs by microplate reader assay; assay type: functional
Cryptococcus neoformans = assay: Antifungal activity against Cryptococcus neoformans H99 assessed as fungal growth inhibition incubated for 48 hrs by microplate reader assay; assay type: functional

Compound: N#CCC(=O)NNC(=S)Nc1ccc(Cl)c(Cl)c1
- Ki [1]: 29.2 µM
- Activity (Nakaseomyces glabratus [2]): Active
- Kd [3]: 2800 nM
- MIC (Nakaseomyces glabratus [4]): 32 µg/mL (≈ 106 µM)
- FIC (Nakaseomyces glabratus [5]): 8 µg/mL
- fluconazole MIC in combination (Nakaseomyces glabratus [6]): 2 µg/mL
- fractional inhibitory concentration index (FICI) (Nakaseomyces glabratus [7]): 0.31
- solubility [8]: 9.12 µg/mL (≈ 30.1 µM)

Compound: OC(Cn1cncn1)(Cn1cncn1)c1ccc(F)cc1F [FLUCONAZOLE]
- Activity (Nakaseomyces glabratus [2]): Active
- MIC (Nakaseomyces glabratus [4]): 32 µg/mL (≈ 104 µM)
- fractional inhibitory concentration index (FICI) (Nakaseomyces glabratus [9]): 0.25
- fractional inhibitory concentration index (FICI) (Nakaseomyces glabratus [10]): 0.52
- fractional inhibitory concentration index (FICI) (Nakaseomyces glabratus [11]): 0.31
- fractional inhibitory concentration index (FICI) (Nakaseomyces glabratus [12]): 0.56
- fractional inhibitory concentration index (FICI) (Nakaseomyces glabratus [13]): 0.56
- fractional inhibitory concentration index (FICI) (Nakaseomyces glabratus [14]): 0.53
- fractional inhibitory concentration index (FICI) (Nakaseomyces glabratus [15]): 0.56
- fractional inhibitory concentration index (FICI) (Nakaseomyces glabratus [16]): 0.38
- fractional inhibitory concentration index (FICI) (Nakaseomyces glabratus [17]): 0.53
- fractional inhibitory concentration index (FICI) (Nakaseomyces glabratus [18]): 0.53
- fractional inhibitory concentration index (FICI) (Nakaseomyces glabratus [19]): 0.53
- fractional inhibitory concentration index (FICI) (Nakaseomyces glabratus [20]): 0.53
- fractional inhibitory concentration index (FICI) (Nakaseomyces glabratus [21]): 0.53
- fractional inhibitory concentration index (FICI) (Nakaseomyces glabratus [22]): 0.56
- fractional inhibitory concentration index (FICI) (Nakaseomyces glabratus [23]): 0.53
- fractional inhibitory concentration index (FICI) (Nakaseomyces glabratus [24]): 0.29
- fractional inhibitory concentration index (FICI) (Nakaseomyces glabratus [25]): 0.31
- fractional inhibitory concentration index (FICI) (Nakaseomyces glabratus [26]): 0.31
- fractional inhibitory concentration index (FICI) (Nakaseomyces glabratus [27]): 0.76
- fractional inhibitory concentration index (FICI) (Nakaseomyces glabratus [28]): 0.53
- fractional inhibitory concentration index (FICI) (Nakaseomyces glabratus [29]): 0.52
- fractional inhibitory concentration index (FICI) (Nakaseomyces glabratus [30]): 0.28
- Activity (Nakaseomyces glabratus [31]): inactive
- inhibition at 32 µg/mL (Nakaseomyces glabratus [32]): 39%
- inhibition at 4 µg/mL (Nakaseomyces glabratus [33]): 33%
- inhibition (Nakaseomyces glabratus [34]): Active
- Activity (Nakaseomyces glabratus [35]): inactive
- Activity (Nakaseomyces glabratus [36]): inactive
- Activity (Nakaseomyces glabratus [37]): inactive
- Activity (Nakaseomyces glabratus [38]): inactive
- Activity (Nakaseomyces glabratus [39]): inactive
- Activity (Nakaseomyces glabratus [40]): Active

Compound: Nc1cc(=O)n(C(=S)Nc2ccc(Cl)nc2)[nH]1
- Ki [1]: 144 µM
- MIC (Nakaseomyces glabratus [4]): 0.5 µg/mL (≈ 1.85 µM)
- FIC (Nakaseomyces glabratus [5]): 0.25 µg/mL
- fluconazole MIC in combination (Nakaseomyces glabratus [6]): 0.5 µg/mL
- fractional inhibitory concentration index (FICI) (Nakaseomyces glabratus [7]): 0.52
- MIC (Nakaseomyces glabratus [41]): 0.25 µg/mL (≈ 0.927 µM)
- MIC (Nakaseomyces glabratus [42]): 0.25 µg/mL (≈ 0.927 µM)
- MIC (Candida albicans): 4 µg/mL (≈ 14.8 µM)
- MIC (Candida tropicalis): 4 µg/mL (≈ 14.8 µM)
- MIC (Candida parapsilosis): 4 µg/mL (≈ 14.8 µM)
- MIC ([Candida] auris [43]): 2 µg/mL (≈ 7.42 µM)
- MIC ([Candida] auris [44]): 2 µg/mL (≈ 7.42 µM)
- MIC (Aspergillus fumigatus): 16 µg/mL (≈ 59.3 µM)
- MIC (Nannizzia gypsea): 1 µg/mL (≈ 3.71 µM)
- MIC (Trichophyton rubrum): 1 µg/mL (≈ 3.71 µM)
- MIC (Cryptococcus neoformans): 0.063 µg/mL (≈ 0.234 µM)
